Experimental findings from paper PMC9841533, “Microtubule-Stabilizing 1,2,4-Triazolo[1,5-a]pyrimidines as Candidate Therapeutics for Neurodegenerative Disease: Matched Molecular Pair Analyses and Computational Studies Reveal New Structure–Activity Insights” (Journal of Medicinal Chemistry, 2022) are described below.

Read-outs that look alike come from different tables or passages of the source.

Experiment [1] concerns total α-tubulin (α-Tub) levels in QBI293 cells. As to the kind of experiment: QBI293 cell assay: total α-tubulin ELISA. In kind it is cell-based. The essentials: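 AcTub and α-Tub were quantified by ELISA in whole-cell extracts normalized by BCA protein and expressed relative to vehicle. AcTub changes were also scaled to a 100 nM reference stabilizer control.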
(In an ELISA, binding on a coated surface is turned into a signal by an enzyme label.)

The subject of experiment [2] is AcTub levels in OA-treated primary mouse cortical neurons. As to the kind of experiment: Okadaic acid (OA) assay, AcTub ELISA in primary mouse cortical neurons. In kind it is cell-based. To be noted: OA 15 nM, 8 h, compound 1 and 10 μM. The protocol:
To further evaluate the activity of Class I alkyne derivatives and hybrid compounds, several compounds were also assessed for their ability to compensate for MT deficits in primary neuron cultures that were treated with the phosphatase inhibitor, okadaic acid (OA). As previously described,[11] treatment of rodent neurons with OA results in tau hyperphosphorylation and MT collapse that presumably results, at least in part, from tau disengagement from MTs. Co-treatment of neurons with Class I TPDs, such as 1, along with OA prevents this MT collapse, with a resulting normalization of MT structure and neuronal processes which can be observed upon visual inspection of the neurons or through an assessment of neuronal AcTub levels, while Class II TPDs are generally unable to provide meaningful compensation of MT deficits, especially when tested at higher (i.e., 10 μM) compound concentration.[11],[12]
Figure 4 ELISA determination of AcTub levels in homogenates from primary rat cortical neurons treated with either vehicle, or OA (15 nM) in the presence of vehicle or TPD 1, 8, 9 (A); and primary mouse cortical neurons treated with vehicle, or OA (15 nM) in the presence of vehicle or TPD 1, 24, 45, 46, 53, 54 (B). Error bars represent SEM, with ***, p < 0.001 relative to vehicle treatment in the absence of OA as determined by one-way ANOVA.
Compound-induced changes in acetylated-tubulin and α-tubulin in QBI293 cells or primary mouse or rat neurons were as previously described.[11],[12] For compound testing, QBI293 cells were plated at a density of 2 × 10^5 cells/well in 12-well plates. The plated cells were incubated overnight, after which the medium was aspirated and fresh medium containing vehicle (0.25–0.3% DMSO) or test compound was added. Test compounds were prepared as 4–20 mM stock solutions in 100% DMSO, and these were diluted in culture medium prior to addition to the QBI293 cells. After 4 h incubation, whole-cell extracts were prepared from the QBI293 cells as described[11] and the supernatant fraction from each sample was assessed for protein content by bicinchoninic acid (BCA) assay. The amount of acetyl-tubulin (AcTub) and α-tubulin (αTub) within the cell extract samples was quantified using specific enzyme-linked immunosorbent assays (ELISA), as previously described.[11] Acetyl-tubulin levels were determined in a similar manner in rat or mouse cortical neuron cultures in which embryonic dissociated cortical neurons were plated at 3 × 10^5 cells/well in poly-D-lysine-coated 12-well plates, essentially as previously described.[11] The neurons were allowed to grow for 10 days before they were treated for 8 h with 15 nM okadaic acid in the presence or absence of test compound prepared as described above, or vehicle (0.25% DMSO). Culture homogenates were prepared for the determination of AcTub levels by ELISA as previously described.[11]
VehicleVehicleVehicleVehicle25 (1 µM)
Figure S2. Assessment of AcTub levels in primary mouse cortical neurons treated with vehicle,
(1 picture or pasted object on this page, not shown here)

On to `C[C@@H](Nc1c(-c2c(F)cc(C#CCCO)cc2F)c(Cl)nc2ncnn12)C(C)(C)C` [Compound 53, (R)-4-(4-(5-Chloro-7-((3,3-dimethylbutan-2-yl)amino)-[1,2,4]triazolo[1,5-a]pyrimidin-6-yl)-3,5-difluorophenyl)but-3-yn-1-ol], for which the fold induction at 1 µM in experiment [1] (4 h, 1 uM compound, read-out: AlfaTub (1uM)) stood at 0.98; in experiment [1] (4 h incubation, 1 μM, read-out: α-Tub 1 μM, fold-change compared to vehicle (DMSO)-treated cells), 0.98 ± 0.04. The fold induction at 10 µM was 0.98 in experiment [1] (4 h, 10 uM compound, read-out: AlfaTub (10 uM)) and 0.98 ± 0.21 in experiment [1] (4 h incubation, 10 μM, read-out: α-Tub 10 μM, fold-change compared to vehicle (DMSO)-treated cells). The “prevention/correction of OA-induced MT collapse (AcTub levels)” value in experiment [2] is given as “can prevent the OA-induced MT collapse”.
